# “Also recorded” adds a separate entry of the source. Where two headings read alike, the source gives them in different places.
# What was measured:
# [1] = molecular target: T1, glucocorticoid receptor (Homo sapiens, UniProt P04150); conditions: cited from earlier work; for rBA (relative receptor binding affinity): relative to dexamethasone = 100, average of all values if multiple available
# T1 sequence (P04150 1-777): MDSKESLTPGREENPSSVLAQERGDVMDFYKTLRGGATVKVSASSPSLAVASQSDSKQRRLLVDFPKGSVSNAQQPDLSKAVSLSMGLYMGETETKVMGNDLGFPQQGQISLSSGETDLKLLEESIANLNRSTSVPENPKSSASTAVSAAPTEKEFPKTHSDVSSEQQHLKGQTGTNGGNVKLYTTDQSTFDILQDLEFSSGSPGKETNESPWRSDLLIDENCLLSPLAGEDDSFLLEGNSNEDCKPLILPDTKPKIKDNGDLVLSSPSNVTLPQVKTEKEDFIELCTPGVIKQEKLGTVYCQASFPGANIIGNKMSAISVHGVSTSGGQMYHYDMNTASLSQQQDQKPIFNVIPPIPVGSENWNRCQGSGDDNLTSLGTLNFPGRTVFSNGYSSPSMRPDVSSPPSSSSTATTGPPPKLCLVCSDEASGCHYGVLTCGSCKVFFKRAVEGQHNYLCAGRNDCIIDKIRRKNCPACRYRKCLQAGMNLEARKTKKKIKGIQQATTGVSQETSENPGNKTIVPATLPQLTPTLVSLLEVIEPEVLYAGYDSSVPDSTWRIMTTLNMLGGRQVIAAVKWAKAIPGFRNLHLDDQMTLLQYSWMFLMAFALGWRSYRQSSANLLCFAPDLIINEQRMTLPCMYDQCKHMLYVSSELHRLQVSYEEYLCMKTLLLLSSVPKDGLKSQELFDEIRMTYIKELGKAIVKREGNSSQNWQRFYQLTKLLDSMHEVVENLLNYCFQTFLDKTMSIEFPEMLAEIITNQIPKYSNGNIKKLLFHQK
# [2] = logP reported in literature; cited from earlier work
# [3] = molecular target: T2, Corticosteroid Binding Globulin (CBG), transcortin (Homo sapiens, UniProt P08185); conditions: cited from earlier work; for Class: CBG binding activity class
# T2 sequence (P08185 23-405): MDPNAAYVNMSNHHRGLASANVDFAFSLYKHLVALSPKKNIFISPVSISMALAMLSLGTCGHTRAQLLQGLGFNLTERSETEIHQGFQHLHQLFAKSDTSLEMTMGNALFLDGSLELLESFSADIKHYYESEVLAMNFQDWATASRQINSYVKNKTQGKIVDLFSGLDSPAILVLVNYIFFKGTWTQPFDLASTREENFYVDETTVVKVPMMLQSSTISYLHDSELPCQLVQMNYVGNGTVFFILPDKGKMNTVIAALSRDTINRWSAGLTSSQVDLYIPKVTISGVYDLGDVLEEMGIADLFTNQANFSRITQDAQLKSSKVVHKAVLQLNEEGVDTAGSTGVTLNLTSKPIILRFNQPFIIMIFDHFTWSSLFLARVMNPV
# [4] = molecular target: T3, transcortin (CBG) (Homo sapiens, UniProt P08185); experiment: Binding of corticosteroids to transcortin: 3H-cortisol competition in charcoal-treated diluted plasma
# T3 construct: from tissue; host or cells: plasma from venous blood of healthy volunteers, charcoal-treated, diluted 100-fold
# T3 sequence (P08185 23-405): T2 sequence (P08185 23-405)
# Procedure: Experimental procedure: Venous blood was collected from healthy volunteers into heparin-containing tubes (5 Us/100 ml serum) and cells were separated from plasma by centrifugation (1500 g for 15 min). […] Charcoal-treated plasma was diluted 100-fold with binding buffer (10 mM Tris-HCl; 2 mM DTT (dithiotreitol); 1.5 mM EDTA; 0.02 M Na2MoO4; 10% Glycerol; pH 7.4) and was stored aliquoted at −80° C. […] The assay ingredients were mixed and the tubes were incubated for 1 hour on ice. At the end of the incubation, 0.2 ml of charcoal suspension (0.5% Norit A and 0.05% BSA) was added to each tube. The tubes were briefly agitated and incubated for an additional 10 min at 0° C. They were then centrifuged for 10 min at 15 000 g, and the same aliquots from the clear supernatants were quantitatively decanted into counting vials and combined with 3 ml of toluene-based scintillation fluid. […] Specific binding and IC50-values were calculated.
# [5] = molecular target: T1, glucocorticoid receptor; experiment: Relative binding affinity for the glucocorticoid receptor (GCR/GR); conditions: GRs were calculated from RBAs; read-out: GR Est. IC50
# [6] = test system: forearms of human volunteers; experiment: Human vasoconstriction (blanching) testing; type: in vivo; parameters: key to Vasoconstriction activity (total score of 4 tests): sum of 4 tests, each 0 = normal skin to 4 = very intense pallor; conditions: for Vasoconstriction activity alone (in words): by itself, concentration range 0.1 to 1 mM, human skin
# Procedure: Solutions of LE, HC and PRN (0.1 or 1 mM) alone, or mixtures of LE and HC (0.1+0.1 mM, or 1+1 mM), or LE and PRN (0.1+0.1 mM, or 1+1 mM) were prepared with a vehicle containing absolute ethanol and propylene glycol (9:1). […] After evaporation of ethanol (20 min), the films were applied to the forearms of human volunteers for 4 hours. Subsequently, the vasoconstriction reaction was read and judged by the appearance of pallor at various time intervals after the removal of the discs and films. The grading scale was as follows: 0, normal skin; 1, slight pallor; 2, pallor with at least two corners outlined; 3, even pallor with a clear outlined of the application sites; 4, very intense pallor. Due to the relatively high variations in response between the volunteers, a total score of 4 tests at each time point was taken for the activity evaluation.
# [7] = anti-inflammatory activity, LE vs hydrocortisone; cited from earlier work
# [8] = 3 nM 3H-cortisol, 1 hour on ice, plasma diluted 100-fold, read-out: IC50-values (nM) average ± SEM (n)
# [9] = estimated, unpublished results Bodor, Kurucz 2006, read-out: CBG Est. IC50
# [10] = 0.1 mM, 2 hr after removal, 4 h application
# [11] = 1 mM, 2 hr after removal, 4 h application
structure (smiles),measurement,setting,value
CCC(=O)O[C@]1(C(=O)CCl)[C@@H](C)C[C@H]2[C@@H]3CCC4=CC(=O)C=C[C@]4(C)[C@@]3(F)[C@@H](O)C[C@@]21C [Clobetasol propionate],rBA (relative receptor binding affinity),[1],6300
same,logP,[2],3.83
C[C@]12C[C@H](O)[C@H]3[C@@H](CCC4=CC(=O)CC[C@@]43C)[C@@H]1CC[C@@H]2C(=O)CO [Corticosterone],Class,[3],1
same,Log 1/K,"[3]; CBG binding affinity, literature data",−7.881
same,rBA (relative receptor binding affinity),[1],35
same,logP,[2],1.94
"C[C@]12CCC(=O)C=C1CCC1C2[C@@H](O)C[C@@]2(C)C1CC[C@]2(O)C(=O)O (stereo partly drawn) [Cortienic acid (CA) GYKI-24805, 11β,17α-dihydroxyandrost-4-en-3-one-17β-carboxylic acid]",IC50,[4]; [8],117 ± 49 nM
same,IC50,[4]; [9],120 nM
same,IC50,[5],> 1000 nM
CC1(C)O[C@@H]2C[C@H]3[C@@H]4C[C@H](F)C5=CC(=O)C=C[C@]5(C)[C@H]4[C@@H](O)C[C@]3(C)[C@]2(C(=O)CO)O1 [Flunisolide],rBA (relative receptor binding affinity),[1],165
same,logP,[2],2.28
CCC(=O)O[C@]1(C(=O)CO)CC[C@H]2[C@@H]3CCC4=CC(=O)CC[C@]4(C)[C@H]3[C@@H](O)C[C@@]21C [Hydrocortisone 17-propionate],rBA (relative receptor binding affinity),[1],79
same,logP,[2],2.70
"C[C@]12CCC(=O)C=C1CCC1C2[C@@H](O)C[C@@]2(C)C1CC[C@]2(O)C(=O)CO (stereo partly drawn) [Hydrocortisone (cortisol), hydrocortisone]",Class,[3],1
same,IC50,[4]; [8],69 ± 8 nM
same,IC50,[4]; [9],70 nM
same,Vasoconstriction activity (total score of 4 tests),[6]; [10],0
same,Vasoconstriction activity (total score of 4 tests),"[6]; 0.1 mM, 4 hr after removal",0
same,Vasoconstriction activity (total score of 4 tests),"[6]; 0.1 mM, 6 hr after removal",0
same,Vasoconstriction activity (total score of 4 tests),"[6]; 0.1 mM, 8 hr after removal",0
same,Vasoconstriction activity (total score of 4 tests),"[6]; 0.1 mM, 10 hr after removal",0
same,Vasoconstriction activity (total score of 4 tests),"[6]; 0.1 mM, 16 hr after removal",0
same,Vasoconstriction activity (total score of 4 tests),"[6]; 0.1 mM, 18 hr after removal",0
same,Vasoconstriction activity (total score of 4 tests),"[6]; 0.1 mM, 24 hr after removal",0
same,Vasoconstriction activity (total score of 4 tests),[6]; [11],0
same,Vasoconstriction activity (total score of 4 tests),"[6]; 1 mM, 4 hr after removal",0
same,Vasoconstriction activity (total score of 4 tests),"[6]; 1 mM, 6 hr after removal",0
same,Vasoconstriction activity (total score of 4 tests),"[6]; 1 mM, 8 hr after removal",0
same,Vasoconstriction activity (total score of 4 tests),"[6]; 1 mM, 10 hr after removal",0
same,Vasoconstriction activity (total score of 4 tests),"[6]; 1 mM, 16 hr after removal",0
same,Vasoconstriction activity (total score of 4 tests),"[6]; 1 mM, 18 hr after removal",0
same,Vasoconstriction activity (total score of 4 tests),"[6]; 1 mM, 24 hr after removal",0
same,Vasoconstriction activity alone (in words),[6]; listed as HC,do not yield any detectable activity; also recorded: no activity
same,logP,[2],1.61
"CCOC(=O)O[C@]1(C(=O)OCCl)CC[C@H]2[C@@H]3CCC4=CC(=O)C=C[C@]4(C)[C@H]3[C@@H](O)C[C@@]21C [Loteprednol etabonate, chloromethyl 17α-ethoxycarbonyloxy-11β-hydroxyandrosta-1,4-dien-3-one-17β-carboxylate]",IC50,[4]; [8],272 ± 27 nM
same,IC50,[4]; [9],270 nM
same,Intrinsic activity in in vitro receptor binding studies (in words),"[1]; Druzgala et al. 1991, [3H]-triamcinolone acetonide tracer, 10^−5M cortienic acid as competitor",intrinsically active
same,rBA (relative receptor binding affinity),[1],150
same,Vasoconstriction activity (total score of 4 tests),[6]; [10],2
same,Vasoconstriction activity (total score of 4 tests),"[6]; 0.1 mM, 4 hr after removal",3
same,Vasoconstriction activity (total score of 4 tests),"[6]; 0.1 mM, 6 hr after removal",5
same,Vasoconstriction activity (total score of 4 tests),"[6]; 0.1 mM, 8 hr after removal",5
same,Vasoconstriction activity (total score of 4 tests),"[6]; 0.1 mM, 10 hr after removal",3
same,Vasoconstriction activity (total score of 4 tests),"[6]; 0.1 mM, 16 hr after removal",1
same,Vasoconstriction activity (total score of 4 tests),"[6]; 0.1 mM, 18 hr after removal",1
same,Vasoconstriction activity (total score of 4 tests),"[6]; 0.1 mM, 24 hr after removal",1
same,Vasoconstriction activity (total score of 4 tests),[6]; [11],6
same,Vasoconstriction activity (total score of 4 tests),"[6]; 1 mM, 4 hr after removal",7
same,Vasoconstriction activity (total score of 4 tests),"[6]; 1 mM, 6 hr after removal",8
same,Vasoconstriction activity (total score of 4 tests),"[6]; 1 mM, 8 hr after removal",8
same,Vasoconstriction activity (total score of 4 tests),"[6]; 1 mM, 10 hr after removal",9
same,Vasoconstriction activity (total score of 4 tests),"[6]; 1 mM, 16 hr after removal",6
same,Vasoconstriction activity (total score of 4 tests),"[6]; 1 mM, 18 hr after removal",5
same,Vasoconstriction activity (total score of 4 tests),"[6]; 1 mM, 24 hr after removal",2
same,Vasoconstriction activity alone (in words),[6],good vasoconstriction activity
same,Increase of vasoconstriction activity of LE by addition of the same amount of HC or PRN,[6]; co-administration of 0.1 mM HC or PRN,60-80%
same,Increase of vasoconstriction activity of LE by addition of the same amount of HC or PRN,[6]; co-administration of 1 mM HC or PRN,60-75%
same,IC50,[5],4 nM
same,Activity relative to hydrocortisone,[7],approximately 20 times
same,logP,[2],3.03
"C[C@]12C=CC(=O)C=C1CCC1C2[C@@H](O)C[C@@]2(C)C1CC[C@]2(O)C(=O)O (stereo partly drawn) [Δ1-CA GYKI-24762, Δ^1-cortienic acid]",IC50,[4]; [8],52 ± 10 nM
same,IC50,[4]; [9],50 nM
same,IC50,[5],> 1000 nM
"COC(=O)[C@@]1(O)CCC2C3CCC4=CC(=O)C=C[C@]4(C)C3[C@@H](O)C[C@@]21C (stereo partly drawn) [Δ1-CA-Me GYKI-24776, Δ^1-CA, methyl ester]",IC50,[4]; [8],31 ± 11 nM
same,IC50,[4]; [9],30 nM
same,IC50,[5],> 1000 nM

# From patent US7687484B2, “Transporter enhanced corticosteroid activity” (priority 2006, dated 2010)
